From PMC12036750, “Screening of SIRT6 inhibitors and activators: A novel activator has an impact on breast cancer cells” (Biomedicine & pharmacotherapy = Biomedecine & …, 2021)

How the values were obtained:
SIRT6 [1] = target: T1, SIRT6 (Homo sapiens, UniProt Q8N6T7); assay: fluorogenic demyristoylase assay (BPS Bioscience), myristoyl peptide substrate; format: biochemical
Target sequence in this assay (Q8N6T7 2-355): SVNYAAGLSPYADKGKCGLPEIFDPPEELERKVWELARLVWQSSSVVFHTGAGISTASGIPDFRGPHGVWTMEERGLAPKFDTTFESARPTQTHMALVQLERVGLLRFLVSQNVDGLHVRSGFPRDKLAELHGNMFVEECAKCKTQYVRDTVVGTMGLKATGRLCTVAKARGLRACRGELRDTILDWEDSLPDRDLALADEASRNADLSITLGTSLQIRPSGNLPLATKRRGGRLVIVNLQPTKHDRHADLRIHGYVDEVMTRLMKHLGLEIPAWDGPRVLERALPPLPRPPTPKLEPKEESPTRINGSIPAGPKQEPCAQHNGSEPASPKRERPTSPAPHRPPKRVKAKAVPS

SIRT6 [2] = target: T1, SIRT6; assay: HPLC deacetylation assay, single concentration […]; format: biochemical; settings: read-out: % inhibition at 100 μM
Target sequence in this assay (Q8N6T7 whole entry): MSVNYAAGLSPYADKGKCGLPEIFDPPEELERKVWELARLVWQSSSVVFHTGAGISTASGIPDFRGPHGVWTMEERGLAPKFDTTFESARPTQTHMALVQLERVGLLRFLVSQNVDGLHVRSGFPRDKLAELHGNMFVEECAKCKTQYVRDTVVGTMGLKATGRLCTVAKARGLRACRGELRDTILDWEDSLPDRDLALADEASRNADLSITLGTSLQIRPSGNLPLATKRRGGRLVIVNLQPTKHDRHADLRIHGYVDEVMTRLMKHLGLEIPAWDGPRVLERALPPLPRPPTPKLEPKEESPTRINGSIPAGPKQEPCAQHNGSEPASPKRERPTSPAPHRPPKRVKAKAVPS

SIRT6 [3] = target: T1, SIRT6; assay: HPLC deacetylation assay with H3K9Ac peptide; dose response and steady-state kinetics (activation); format: biochemical
Target sequence in this assay (Q8N6T7 whole entry): as above

SIRT2 = target: T2, SIRT2 (Homo sapiens, UniProt Q8IXJ6); assay: fluorogenic deacetylation assay (BioMol KI179 substrate), single concentration […]; format: biochemical
T2 sequence (Q8IXJ6 2-389): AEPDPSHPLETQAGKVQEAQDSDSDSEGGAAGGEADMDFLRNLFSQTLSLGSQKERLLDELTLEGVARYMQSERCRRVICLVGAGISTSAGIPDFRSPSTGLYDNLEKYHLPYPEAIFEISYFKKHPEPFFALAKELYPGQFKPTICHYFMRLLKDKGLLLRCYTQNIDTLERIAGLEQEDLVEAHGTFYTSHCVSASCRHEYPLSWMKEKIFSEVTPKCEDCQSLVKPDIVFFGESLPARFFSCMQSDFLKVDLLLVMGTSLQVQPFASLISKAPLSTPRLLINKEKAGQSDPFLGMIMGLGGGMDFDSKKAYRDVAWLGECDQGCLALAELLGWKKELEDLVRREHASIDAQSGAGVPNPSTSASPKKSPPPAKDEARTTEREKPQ

[4] = test system: T3, NC(=O)c1ccc[n+]([C@@H]2O[C@H](COP(=O)([O-])OP(=O)(O)OC[C@H]3O[C@@H](n4cnc5c(N)ncnc54)[C@H](O)[C@@H]3O)[C@@H](O)[C@H]2O)c1; assay: steady-state Michaelis-Menten kinetics by HPLC (Km, DMSO control); format: biochemical, Homo sapiens
T3 construct: GST-tagged recombinant SIRT6

## NC(=O)c1cccnc1 [NAM]
SIRT6 [1]
  inhibition at 200 µM: 86 ± 13%

## O=c1c(O)c(-c2ccc(O)c(O)c2)oc2cc(O)cc(O)c12 [Q, quercetin]
SIRT6 [2]
  inhibition at 100 µM: 30%

## Cc1c(-c2ccccc2)oc2c(CC(=O)OCC(=O)c3ccc(O)cc3O)cccc2c1=O [compound 1, (2,4-dihydroxy-phenyl)–2-oxoethyl 2-(3-methyl-4-oxo-2-phenyl-4H-chromen-8-yl)acetate]
SIRT6 [3]
  EC50: 80 ± 12 µM
SIRT2
  inhibition at 200 µM: 53 ± 1.3%

## SIRT6 (Homo sapiens)
[4]
  Km: 1190 ± 450 µM
  kcat: 0.0022 ± 0.0004 s⁻¹
  kcat/Km: 1.9 M⁻¹ s⁻¹
